{"source": "patent US10544138B2", "about": "“Tricyclic kinase inhibitors of MELK and methods of use” (Dana-Farber Cancer Institute, Inc., priority 2015, dated 2020)", "key": {"Aurora B": {"target": "Aurora B (Homo sapiens, UniProt Q96GD4)", "sequence (Q96GD4 whole entry)": "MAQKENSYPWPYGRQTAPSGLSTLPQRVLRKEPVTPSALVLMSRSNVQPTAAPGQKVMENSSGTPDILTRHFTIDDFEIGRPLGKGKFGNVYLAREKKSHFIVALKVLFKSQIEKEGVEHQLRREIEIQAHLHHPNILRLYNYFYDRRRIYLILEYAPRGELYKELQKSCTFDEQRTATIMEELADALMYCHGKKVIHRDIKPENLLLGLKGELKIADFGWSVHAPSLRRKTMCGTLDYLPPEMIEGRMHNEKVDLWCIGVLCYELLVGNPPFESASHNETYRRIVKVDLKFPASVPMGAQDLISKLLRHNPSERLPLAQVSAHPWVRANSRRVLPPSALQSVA", "assay": "Recombinant mitotic kinase assay, Aurora B", "format": "biochemical", "conditions": "recombinant kinases", "protocol": "(§1) […] assays were performed with recombinant protein of the indicated mitotic kinase (left) and AMPK family kinases (right) in the presence of THZ-4-63-1. […] Cells were treated with nocodazole (100 ng/ml) for 18 h or not treated (Asyn., asynchronous). Nocodazole-arrested mitotic cells (M) were isolated via shake-off. The attached cells enriched in G2 phase (G2) were harvested. A portion of the mitotic cells were washed off nocodazole and released into G1 phase after 4 hours of incubation (G1). […] In Panel D, mitotic lysates were prepared from the indicated cells, and treated with λ-phosphatase at 30° C. In Panel E, nocodazole-arrested mitotic cells were treated with increasing concentration of THZ-4-63-1 for 30 min. Cell lysates were subjected to immunoblotting.\n(§2) To discover a selective MELK inhibitor, a few molecule scaffolds with the potential of binding to MELK were identified, including 2,4-disubstituted pyrimidines and benzonaphthyridinones. […] To investigate if THZ-4-63-1 confers selective inhibition on MELK, we tested its effect on other mitotic kinases. In assays using recombinant kinases, MELK kinase activity was 20-fold more sensitive to THZ-4-63-1, than that of Aurora A, Aurora B, CDK1, or PLK1 (FIG. 1B)."}, "NUAK1": {"target": "T1, NUAK1 (Homo sapiens, UniProt O60285)", "T1 sequence (O60285 1-661)": "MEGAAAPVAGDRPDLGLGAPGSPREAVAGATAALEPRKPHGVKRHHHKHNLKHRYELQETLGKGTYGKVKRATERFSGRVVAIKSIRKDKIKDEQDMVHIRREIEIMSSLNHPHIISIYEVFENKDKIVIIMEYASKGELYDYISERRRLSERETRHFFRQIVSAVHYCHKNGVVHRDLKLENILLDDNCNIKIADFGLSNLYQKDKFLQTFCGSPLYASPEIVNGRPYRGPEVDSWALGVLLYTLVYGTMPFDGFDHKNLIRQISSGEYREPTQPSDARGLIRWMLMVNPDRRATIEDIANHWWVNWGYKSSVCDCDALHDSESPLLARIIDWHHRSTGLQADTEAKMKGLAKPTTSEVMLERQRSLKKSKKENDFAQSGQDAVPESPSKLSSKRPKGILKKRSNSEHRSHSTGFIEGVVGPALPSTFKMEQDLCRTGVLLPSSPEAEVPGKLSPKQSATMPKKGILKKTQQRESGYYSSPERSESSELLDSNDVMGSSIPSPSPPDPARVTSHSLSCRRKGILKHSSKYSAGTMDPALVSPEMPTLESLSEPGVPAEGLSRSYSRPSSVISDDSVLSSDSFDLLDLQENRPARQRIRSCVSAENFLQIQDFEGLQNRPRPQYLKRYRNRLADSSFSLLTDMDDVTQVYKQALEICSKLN", "assay": "Recombinant AMPK family kinase assay, NUAK1", "format": "biochemical", "conditions": "recombinant kinases", "protocol": "as §1, §2"}}, "data": [{"molecule": "CN(C)Cc1ccc(-n2c(=O)ccc3cnc4ccc(-c5cc(Cl)c(O)c(Cl)c5)cc4c32)cc1", "note": "[THZ-4-63-1]", "values": [{"measurement": "MELK kinase activity more sensitive than that of Aurora B", "setting": "Aurora B", "result": 20, "unit": "fold"}, {"measurement": "Selectivity for MELK over NUAK1", "setting": "NUAK1", "result": "preferentially targets MELK"}]}]}
